Laboratory results from patent US8758816B2, “Compositions comprising azelastine and methods of use thereof” (priority 2004, dated 2014).

Test system: patients with seasonal allergic rhinitis (SAR)
Experiment: MP 428 two-week randomized double-blind study: Total Nasal Symptom Score (TNSS), change from baseline
Type: in vivo, human
Set-up: key to Change from Baseline in AM TNSS, Mean / Change from Baseline in AM TNSS, LS Mean / Change from Baseline in AM TNSS, Median: TNSS sum of 4 symptoms each 0-3 (0=none, 3=severe); change from baseline
Protocol: A two-week, randomized, double-blind study, which evaluated the effects of the co-administration of ASTELIN® (azelastine hydrochloride (HCl)) and FLONASE® (fluticasone propionate) compared to either product alone in patients with seasonal allergic rhinitis (SAR) was conducted during the 2006 Texas mountain cedar season. After a 5-day placebo lead-in period, 151 patients with moderate-to-severe allergic rhinitis symptoms were randomized to either: (1) (49 total patients) ASTELIN® (azelastine hydrochloride (HCl)) plus placebo saline nasal spray 2 sprays per nostril, 15 minutes apart, twice daily (AM & PM); (2) (50 total patients) FLONASE® (fluticasone propionate) plus placebo saline nasal spray, 2 sprays per nostril, 15 minutes apart, once daily (AM) and two sessions of placebo saline nasal spray, 2 sprays per nostril, 15 minutes apart (PM); or (3) (52 total patients) the co-administration of ASTELIN® (azelastine hydrochloride (HCl)) 2 sprays per nostril plus FLONASE® (fluticasone propionate) 2 sprays per nostril (AM), 15 minutes apart, and ASTELIN® (azelastine hydrochloride (HCl)) 2 sprays per nostril plus placebo saline nasal spray, 15 minutes apart, (PM) for a 2-week double-blind treatment period.
The primary efficacy variable was the change from baseline in the Total Nasal Symptom Score (TNSS), which comprised sneezing, itchy nose, runny nose, and nasal congestion (individual symptoms scores were assigned a value between 0 and 3, where 0=no symptoms and 3=severe symptoms). This study was not statistically designed to assess the differences between ASTELIN® and FLONASE®.

[1] = Day 2, Intent-to-Treat Population
[2] = Day 3, Intent-to-Treat Population
[3] = Day 4, Intent-to-Treat Population
[4] = Day 5, Intent-to-Treat Population

CCC(=O)O[C@]1(C(=O)SCF)[C@H](C)C[C@H]2[C@@H]3C[C@H](F)C4=CC(=O)C=C[C@]4(C)[C@@]3(F)[C@@H](O)C[C@@]21C [Fluticasone, fluticasone propionate]
Primary Reason for Discontinuation From Study: Treatment Failure (All Randomized Patients): 1 (2.0) N (%) | Change from Baseline in AM TNSS, LS Mean [1]: −1.58 | Change from Baseline in AM TNSS, Mean [1]: −1.65 | Change from Baseline in AM TNSS, Median [1]: −1.00 | Change from Baseline in AM and PM Combined TNSS, Mean [1]: −3.24 | Change from Baseline in AM and PM Combined TNSS, Median [1]: −2.00 | Change from Baseline in PM TNSS, LS Mean [1]: −1.54 | Change from Baseline in PM TNSS, Mean [1]: −1.59 | Change from Baseline in PM TNSS, Median [1]: −1.00 | Percent Change from Baseline in AM TNSS, LS Mean [1]: −16.43% | Percent Change from Baseline in AM TNSS, Mean [1]: −17.21% | Percent Change from Baseline in AM TNSS, Median [1]: −11.11% | Percent Change from Baseline in AM and PM Combined TNSS, LS Mean [1]: −16.35% | Percent Change from Baseline in AM and PM Combined TNSS, Mean [1]: −16.91% | Percent Change from Baseline in AM and PM Combined TNSS, Median [1]: −12.46% | Percent Change from Baseline in PM TNSS, LS Mean [1]: −16.05% | Percent Change from Baseline in PM TNSS, Mean [1]: −16.52% | Percent Change from Baseline in PM TNSS, Median [1]: −11.11% | Change from Baseline in AM and PM Combined TNSS, LS Mean (Day 2, Intent-to-Treat Population, ANCOVA model): −3.12 | Change from Baseline in AM and PM Combined TNSS, LS Mean (Day 2, Per-Protocol Population): −3.10 | Change from Baseline in AM and PM Combined TNSS, Mean (Day 2, Per-Protocol Population): −3.27 | Change from Baseline in AM and PM Combined TNSS, Median (Day 2, Per-Protocol Population): −2.00 | Percent Change from Baseline in AM and PM Combined TNSS, LS Mean (Day 2, Per-Protocol Population): −16.38% | Percent Change from Baseline in AM and PM Combined TNSS, Mean (Day 2, Per-Protocol Population): −17.11% | Percent Change from Baseline in AM and PM Combined TNSS, Median (Day 2, Per-Protocol Population): −12.46% | Change from Baseline in AM TNSS, LS Mean [2]: −2.01 | Change from Baseline in AM TNSS, Mean [2]: −2.04 | Change from Baseline in AM TNSS, Median [2]: −1.50 | Change from Baseline in AM and PM Combined TNSS, Mean [2]: −4.12 | Change from Baseline in AM and PM Combined TNSS, Median [2]: −3.20 | Change from Baseline in PM TNSS, LS Mean [2]: −2.08 | Change from Baseline in PM TNSS, Mean [2]: −2.08 | Change from Baseline in PM TNSS, Median [2]: −1.80 | Percent Change from Baseline in AM TNSS, LS Mean [2]: −21.72% | Percent Change from Baseline in AM TNSS, Mean [2]: −22.09% | Percent Change from Baseline in AM TNSS, Median [2]: −14.29% | Percent Change from Baseline in AM and PM Combined TNSS, LS Mean [2]: −22.17% | Percent Change from Baseline in AM and PM Combined TNSS, Mean [2]: −22.26% | Percent Change from Baseline in AM and PM Combined TNSS, Median [2]: −16.67% | Percent Change from Baseline in PM TNSS, LS Mean [2]: −22.22% | Percent Change from Baseline in PM TNSS, Mean [2]: −22.28% | Percent Change from Baseline in PM TNSS, Median [2]: −20.00% | Change from Baseline in AM and PM Combined TNSS, LS Mean (Day 3, Intent-to-Treat Population, ANCOVA model): −4.09 | Change from Baseline in AM and PM Combined TNSS, LS Mean (Day 3, Per-Protocol Population): −4.18 | Change from Baseline in AM and PM Combined TNSS, Mean (Day 3, Per-Protocol Population): −4.25 | Change from Baseline in AM and PM Combined TNSS, Median (Day 3, Per-Protocol Population): −3.47 | Percent Change from Baseline in AM and PM Combined TNSS, LS Mean (Day 3, Per-Protocol Population): −22.68% | Percent Change from Baseline in AM and PM Combined TNSS, Mean (Day 3, Per-Protocol Population): −22.87% | Percent Change from Baseline in AM and PM Combined TNSS, Median (Day 3, Per-Protocol Population): −16.67% | Change from Baseline in AM TNSS, LS Mean [3]: −2.43 | Change from Baseline in AM TNSS, Mean [3]: −2.41 | Change from Baseline in AM TNSS, Median [3]: −2.67 | Change from Baseline in AM and PM Combined TNSS, Mean [3]: −4.53 | Change from Baseline in AM and PM Combined TNSS, Median [3]: −4.17 | Change from Baseline in PM TNSS, LS Mean [3]: −2.10 | Change from Baseline in PM TNSS, Mean [3]: −2.12 | Change from Baseline in PM TNSS, Median [3]: −1.80 | Percent Change from Baseline in AM TNSS, LS Mean [3]: −25.32% | Percent Change from Baseline in AM TNSS, Mean [3]: −25.07% | Percent Change from Baseline in AM TNSS, Median [3]: −27.27% | Percent Change from Baseline in AM and PM Combined TNSS, LS Mean [3]: −23.75% | Percent Change from Baseline in AM and PM Combined TNSS, Mean [3]: −23.67% | Percent Change from Baseline in AM and PM Combined TNSS, Median [3]: −23.60% | Percent Change from Baseline in PM TNSS, LS Mean [3]: −21.91% | Percent Change from Baseline in PM TNSS, Mean [3]: −22.22% | Percent Change from Baseline in PM TNSS, Median [3]: −20.00% | Change from Baseline in AM and PM Combined TNSS, LS Mean (Day 4, Intent-to-Treat Population, ANCOVA model): −4.53 | Change from Baseline in AM and PM Combined TNSS, LS Mean (Day 4, Per-Protocol Population): −4.61 | Change from Baseline in AM and PM Combined TNSS, Mean (Day 4, Per-Protocol Population): −4.63 | Change from Baseline in AM and PM Combined TNSS, Median (Day 4, Per-Protocol Population): −4.17 | Percent Change from Baseline in AM and PM Combined TNSS, LS Mean (Day 4, Per-Protocol Population): −24.10% | Percent Change from Baseline in AM and PM Combined TNSS, Mean (Day 4, Per-Protocol Population): −24.08% | Percent Change from Baseline in AM and PM Combined TNSS, Median (Day 4, Per-Protocol Population): −23.60% | Change from Baseline in AM TNSS, LS Mean [4]: −2.59 | Change from Baseline in AM TNSS, Mean [4]: −2.57 | Change from Baseline in AM TNSS, Median [4]: −2.00 | Change from Baseline in AM and PM Combined TNSS, Mean [4]: −5.16 | Change from Baseline in AM and PM Combined TNSS, Median [4]: −4.40 | Change from Baseline in PM TNSS, LS Mean [4]: −2.61 | Change from Baseline in PM TNSS, Mean [4]: −2.59 | Change from Baseline in PM TNSS, Median [4]: −2.00 | Percent Change from Baseline in AM TNSS, LS Mean [4]: −26.91% | Percent Change from Baseline in AM TNSS, Mean [4]: −26.62% | Percent Change from Baseline in AM TNSS, Median [4]: −19.23% | Percent Change from Baseline in AM and PM Combined TNSS, LS Mean [4]: −27.20%
